ChEMBL document CHEMBL1201862, “PubChem BioAssay data set” (2004)
Active and inactive are the calls of the source.

Legend:
[1] = molecular target: G-protein coupled receptor 183 (Homo sapiens, UniProt P32249); assay: SAR confirmation of small molecule antagonists of the EBI2 receptor via a luminescent beta-arrestin assa.; assay type: functional
cells [2] = assay: cells
Major prion protein = Major prion protein (Homo sapiens, UniProt P04156); assay type: functional, cell-based
[3] = molecular target: NAD-dependent protein deacylase sirtuin-5, mitochondrial (Homo sapiens, UniProt Q9NXA8); assay: sirtuin-5 deacylation blockers, concentration series – biochemical, fluorescence imaging, cherry-pick, set 5, dose response (AID 720591);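 note: desuccinylation of succinyl peptide AMC substrate read as fluorescence after trypsin release; potency of inhibitors that lower fluorescence and may act on trypsin instead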
Protein skinhead-1 = molecular target: T1, Protein skinhead-1 (Caenorhabditis elegans, UniProt P34707); assay type: functional
T1 sequence (P34707 whole entry): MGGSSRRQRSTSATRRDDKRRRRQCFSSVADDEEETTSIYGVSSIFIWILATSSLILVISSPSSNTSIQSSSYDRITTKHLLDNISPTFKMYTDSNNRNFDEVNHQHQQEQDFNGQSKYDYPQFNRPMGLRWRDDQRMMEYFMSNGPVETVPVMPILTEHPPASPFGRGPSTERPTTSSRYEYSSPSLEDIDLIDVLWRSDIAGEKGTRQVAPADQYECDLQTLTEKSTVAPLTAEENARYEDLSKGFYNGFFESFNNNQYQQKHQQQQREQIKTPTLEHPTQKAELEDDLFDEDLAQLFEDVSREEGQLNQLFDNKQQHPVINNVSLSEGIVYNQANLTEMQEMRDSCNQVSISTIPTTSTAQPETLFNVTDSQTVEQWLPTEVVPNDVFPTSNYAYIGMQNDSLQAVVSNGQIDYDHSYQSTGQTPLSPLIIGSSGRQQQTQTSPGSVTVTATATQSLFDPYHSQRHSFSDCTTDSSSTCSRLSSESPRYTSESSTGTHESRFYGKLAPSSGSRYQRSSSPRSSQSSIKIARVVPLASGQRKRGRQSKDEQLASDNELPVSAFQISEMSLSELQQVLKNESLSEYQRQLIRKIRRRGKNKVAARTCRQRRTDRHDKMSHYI

Streptococcus = assay: GAS UMAA2166 growth inhibition – luminescence, BacTiterGlo, counter-screen for streptokinase expression inhibitor project, dose response (AID 1915); assay type: functional, organism-based;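 note: potency for reduction of bacterial viability or growth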
[4] = blockers of bursicon-stimulated LGR2 cAMP reporter – cell-based, HEK293, CRE-luciferase reporter, cherry pick, set 2, dose response (AID 743343); assay type: functional;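 note: transfected cells were stimulated with diluted bursicon conditioned medium after compound addition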
cells [5] = assay: cells; remark: listed apart in the source
[6] = blockade of melanocortin 4 receptor signaling – cell-based, plate reader, cherry pick, counter-screen for LGR2 antagonist project, dose response (AID 743444); assay type: functional;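 note: transfected HEK 293 cells stimulated with alpha-MSH peptide; potency of inhibitors of the alpha-MSH evoked signal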
[7] = viability of uninfected HEp-2 cells – cell-based, HTS, cytotoxicity control for RSV inhibitor project, dose response (AID 2410); assay type: functional; conditions: human respiratory syncytial virus
Streptokinase A = molecular target: T2, Streptokinase A (Streptococcus pyogenes serotype M1, UniProt P10520); assay: viability-normalized secreted streptokinase activity reduction – plasminogen activation absorbance, OD405, dose response (AID 1914); assay type: functional, Streptococcus pyogenes M1 GAS;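 note: secreted streptokinase activity via plasminogen activation per viability signal from cell pellet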
T2 sequence (P10520 whole entry): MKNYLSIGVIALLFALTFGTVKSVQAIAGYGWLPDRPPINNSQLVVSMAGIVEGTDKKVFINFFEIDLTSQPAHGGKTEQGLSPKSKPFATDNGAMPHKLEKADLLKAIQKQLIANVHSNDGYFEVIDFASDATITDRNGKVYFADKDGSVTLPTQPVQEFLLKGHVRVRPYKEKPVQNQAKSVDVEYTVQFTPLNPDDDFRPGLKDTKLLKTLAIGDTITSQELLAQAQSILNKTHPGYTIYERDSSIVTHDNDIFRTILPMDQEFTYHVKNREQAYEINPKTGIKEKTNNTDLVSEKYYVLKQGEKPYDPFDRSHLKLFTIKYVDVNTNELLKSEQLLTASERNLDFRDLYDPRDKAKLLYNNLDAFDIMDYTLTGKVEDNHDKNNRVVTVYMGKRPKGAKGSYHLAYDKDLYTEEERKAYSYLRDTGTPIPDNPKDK

[8] = toxicity toward HepG2 liver cells – cell-based, plate reader, cherry-pick, antagonist series, cytotoxicity control, dose response (AID 743416); assay type: functional
[9] = A549 cell cytotoxicity, dose response, cytotoxicity control, plate reader, cherry-pick, antagonist series (AID 743412); assay type: functional, cell-based
[10] = test system: Streptococcus sp. 'group A'; assay: Streptococcus pyogenes SK(-)GAS viability under kanamycin – luminescence, BacTiterGlo, confirmation, counter-screen for streptokinase expression inhibitor project, dose response (AID 1900); assay type: functional, organism-based
Kallikrein-7 = Kallikrein-7 (Homo sapiens, UniProt P49862); assay: Fluorescence Intensity-based biochemical primary high throughput dose response assay to identify activators of kallikrein-7 (K7) zymogen.
[11] = general mammalian cell viability loss – activator set, cherry-pick, cytotoxicity control for miR-122 modulator project, dose response (AID 720690); assay type: functional, cell-based;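 note: HEK293T human cells scored for general mammalian cytotoxicity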
[12] = IGROV1 cell killing – plate reader, dry powder samples, PAX8 inhibitor project, dose response (AID 743043); assay type: functional, cell-based; conditions: IGROV-1
[13] = OVCAR-3 cell viability loss – plate reader, dry powder samples, PAX8 inhibitor project, dose response (AID 743044); assay type: functional, cell-based
[14] = OVCAR8 cell viability loss – plate reader, dry powder samples, PAX8 project, dose response (AID 743197); assay type: functional, cell-based; conditions: OVCAR-8
[15] = activation of miR-122 Renilla sensor silencing – cell-based, Huh7 psiCHECK-miR122, Renilla luciferase, cherry-picked, dose response (AID 651956); assay type: functional;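 note: huh7 hepatoma cells stably carrying a psiCHECK-2 miR-122 sensor plasmid; renilla luciferase signal reporting endogenous miR-122 activity after 48 h compound exposure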
[16] = general mammalian cell viability loss – inhibitor set, cherry-pick, set 2, cytotoxicity control for miR-122 modulator project, dose response (AID 720697); assay type: functional, cell-based

## O=C(/C=C/c1ccc(F)cc1)N1CCN(S(=O)(=O)Cc2ccccc2)CC1
[1]
  IC50: 0.0287 µM (active)

## Cc1nnc(S)c2nn(-c3ccccc3F)c(C)c12
Cells [2]
  IC50: > 138 µM (inactive)
Major prion protein
  IC50: 8.71 µM (active)

## CCCCCCCCN1C(=O)[C@H](CC(=O)NCCCN2CCCC2=O)C[C@@]2(C(=O)OC)CC(C)(C)CC=C12
[3]
  AC50: > 30 µM (inactive)

## Cc1ccc2nc(-c3ccc(N)cc3)sc2c1
Protein skinhead-1
  IC50: > 100 µM (inactive)
Streptococcus
  EC50: > 150 µM (not active)
[4]
  AC50: 1.88 µM (active)
Cells [5]
  IC50: 29.7 µM (active)
[6]
  AC50: 1.55 µM (active)
[7]
  CC50: > 50 µM (active)
Streptokinase A
  EC50: > 150 µM (not active)
[8]
  AC50: 50.6 µM (active)
[9]
  AC50: 51.3 µM (active)
[10]
  EC50: > 150 µM (not active)

## CCOC(=O)c1c(-c2ccccc2)oc2cc(Br)c(O)cc12
Cells [2]
  IC50: 60 µM (inactive)
Major prion protein
  IC50: 1.44 µM (active)

## CC(C)(C)c1ccc(S(=O)(=O)N2CCN(C(=O)/C=C/c3ccc(Cl)c(Cl)c3)CC2)cc1
[1]
  IC50: 0.0468 µM (active)

## CN1C(=O)c2ccccc2N(C)C1c1ccc(F)cc1 (centres undefined)
Kallikrein-7
  EC50: > 69.5 µM (inactive)

## C[C@H]1CCCCO[C@H](CN(C)Cc2ccccc2)[C@@H](C)CN([C@@H](C)CO)C(=O)c2cc(NC(=O)Nc3ccc(C(F)(F)F)cc3)ccc2O1
[11]
  AC50: 11.3 µM (active)
[12]
  AC50: 23.4 µM (active)
[13]
  AC50: 22.8 µM (active)
[14]
  AC50: 21.4 µM (active)
[15]
  AC50: 6.32 µM (active)
[16]
  AC50: 8.18 µM (active)
